Consider four molecules from patent US7709443B2, “Cyclic peptide antitumor agents” (Northwestern University, priority 2003, dated 2010).

SMILES strings stand for the structures. In brackets after ≈: the same amount, converted by molar mass. Like-named read-outs stand apart in the source and are kept apart here. Square brackets hold non-standard residues; d marks the D form. Peptide text beside a SMILES is read from it. NMePhe(4-Br) = CN[C@@H](Cc1ccc(Br)cc1)C(=O)O; Phe(4-Br) = N[C@@H](Cc1ccc(Br)cc1)C(=O)O; Hica(2S) = CC(C)C[C@H](O)C(=O)O; NMeL = CN[C@@H](CC(C)C)C(=O)O

The IC50 is the concentration that gives 50% inhibition. Low readings indicate inhibition by little substance, high ones a need for much substance.

Data set [1] deals with PC-3 (Prostate) human cancer cell line. To be noted: three days.
Method: (§5) Cells were plated at 5,000 cells per well in 24-well plates, treated for three days, then counted. Cell number was normalized to the number of cells in untreated control (DMSO) cells, also after three days.
The subject of data set [2] is Caspase-3 activity in PC-3 cells. The data set is described as follows: Caspase-3 activity, fluorometric assay. Format: cell-based, human. To be noted: relative to DMSO and staurosporin controls. The method, then: Caspase-3 is a mediator of apoptosis, and induction of Caspase-3 activity indicates induction of apoptosis. Activity of Caspase-3 was measured by a fluorometric assay, as described in the literature, referenced above.

Data set [3] has as its system MDA-MB231 (Breast) human cancer cell line. The conditions noted are these: three days.
Method: as §5
The test system of data set [4] is WM115 (Melanoma) human cancer cell line. To be noted: three days.
Method: as §5
The next data set concerns PC-3 cells. The data set is described as follows: Annexin V binding, induction of apoptosis. Format: cell-based, human. To be noted: after 72 hours. From the text: The ability of the compounds in this invention to induce apoptosis was also studied, based on a methodology previously reported in the literature. (See, Soff et al. Cancer Res., 63:4275-4289, 2003.) As understood by those skilled in the art, the ability of Annexin V to bind two cells is related to altered phospholipids on a cell surface, induced by apoptosis. As such, increased Annexin V binding indicates induction of apoptosis.

Data set [5] concerns AsPC-1 cells. Description: Cell proliferation assay (Guava ViaCount cell number), AsPC-1. To be noted: AsPC-1, 10 μM, 72 hours, vs vehicle (DMSO). The data set is classed as cell-based, human. The method, then: (§1) Given the results of the preceding example, several compounds of this invention were tested against human pancreatic cancer cell lines. Two cancer cell lines were selected: S2-013 (well-differentiated) and AsPC-1 (poorly differentiated). These cell lines were purchased from American Type Culture Collection (Manassas, Va.). Both cell lines were grown in DMEM and plated as monolayers in the medium supplemented with 10% fetal bovine serum in a humidified atmosphere of […] and 5% CO2 at 37° C. The cells were regularly seeded into 75 cm^2 flasks with media changes every second or third day. For experiments, cells were grown to 70% confluence, digested with trypsin-EDTA, and plated in either 6-, 24-, or 48-well plates.
(§2) Cell Proliferation Assay. Cells were regularly seeded into three 6-well plates and incubated at 37° C. for 24 hours. Cells were then cultured in serum-free medium for another 24 hours and treated in fresh serum-free medium with or without 10 μM of cyclic peptide 1k for 24, 48, and 72 hours. At the end of each time period, the cells were trypsinized to produce a single cell suspension, and the cell number in each well was determined using Guava Technologies=ViaCount Assay (Guava Technologies Inc, Hayward, Calif.).
(§3) Statistical Analysis. Data were analyzed by ANOVA with Dunnett's or Bonferoni's corrections for multiple comparisons, as appropriate. This analysis was performed with the Prism software package (GraphPad, San Diego, Calif.). Data were expressed as mean±SEM.

For the next data set, the system named is S2-013 cell line. The data set is described as follows: Cell proliferation assay (Guava ViaCount cell number), S2-013. The data set is classed as cell-based, human. To be noted: S2-013, 10 μM, 72 hours, vs vehicle (DMSO). The method, then: as §1, §2, §3
Data set [6] relates to AsPC-1 human pancreatic cancer cells. The data set is described as follows: Cell cycle analysis by flow cytometry, AsPC-1. To be noted: AsPC-1, 10 μM, 24 hours. Format: cell-based. The method, then: (§4) Cell Cycle Analysis by Flow Cytometry. AsPC-1 and S2013 human pancreatic cancer cells were cultured in T75 flasks with media containing 10% FBS. After reaching 50-60% confluence, the cells were serum-starved for 24 hours, and then treated with 10 μM of cyclic peptide 1k for 24 hours. At the end of the treatment, the cells were harvested with trypsin-EDTA solution to produce single cell suspension. The cells were then centrifuged at 1000×g for 10 minutes. The pellets were washed twice with ice-cold phosphate buffer saline (PBS), and re-suspended in 0.5 ml PBS. 5 ml of ice-cold 70% ethanol was added to each cell suspension and incubated for 12 hours at 4° C. The cells fixed in ethanol were centrifuged at 1000×g for 10 minutes and the subsequent pellets were washed with ice-cold PBS twice. The final cell pellets were reconstituted in the 1 ml Telford reagent and horizontally shaken for 1 hour in the dark at room temperature. The red fluorescence of the single events was recorded using a laser beam at 488 nm excitation 8 and 610 nm as emission 8 to measure the DNA index. Experiments were repeated three times.

For data set [7] the test system is unchanged. The data set is described as follows: DNA synthesis by [methyl-3H] thymidine incorporation, AsPC-1. Format: cell-based. The conditions noted are these: AsPC-1, 24 hours, FIG. 6. The method, then:
as §1
DNA Synthesis by [methyl-^3H] Thymidine Incorporation. Cells were plated in 24-well plates at a concentration of 50,000 cells/well. […] Radioactivity, indicating incorporation of ^3H-methyl thymidine into DNA, was measured by adding scintillation cocktail and counting on a scintillation counter (LKB RackBeta; Wallac, Turku, Finland).
Statistical Analysis. Data were analyzed by ANOVA with Dunnett's or Bonferoni's corrections for multiple comparisons, as appropriate. […] Data were expressed as mean±SEM.
For orientation: Dividing cells build labelled thymidine or BrdU into new DNA.

The subject of data set [8] is AsPC-1 cells. The data set is described as follows: Morphological changes using light microscopy, AsPC-1. To be noted: AsPC-1, 24 hours, 0.1-100 μM tested. The data set is classed as cell-based, human. The method, then: as §1
Morphological Changes Using Light Microscopy. AsPC-1 and S2-013 cells plated in 24-well plates were treated with varying concentrations (0.1-100 μM) of cyclic peptide 1k for 24 hours. Cells were then viewed using light microscopy, and digital images were taken with a Kodak DC120 zoom digital camera (Eastman Kodak Co., Rochester, N.Y.).

In data set [9] the test system is S2013 human pancreatic cancer cells. Description: Cell cycle analysis by flow cytometry, S2013. Format: cell-based. To be noted: S2013, 10 μM, 24 hours. The method, then:
as §4
A general note: In flow cytometry, cells or beads pass a laser one at a time.

The test system of data set [10] is National Cancer Institute's 60 cell-line panel. The conditions noted are these: mean over panel; cited from earlier work.
The next data set deals with topoisomerase I. The conditions noted are these: mechanism study in molluscum contagiosum virus; cited from earlier work.
Data set [11] has as its system HCT-116 (human colon carcinoma). To be noted: as found for the natural product; cited from earlier work.
Data set [12] has the same test system. The data set is described as follows: cells. To be noted: HCT-116 bioassay, Table 1. The source says:
The HCT-116 human colon adenocarcinoma screen is a tissue culture first line assay to detect inherent cytotoxicity against malignant cancer cells. This strain is considered to be an “indicator strain” by many for the selection of inhibitors that target solid tumors. The assay is a calorimetric endpoint assay which can be produced in 96-well format trays. Data are acquired by plate reader and dose response curves are produced by computer analysis. […] This assay is run routinely as described below and would be understood in the art.
1. Media (1000 mL McCoy's 5A Medium, 114 mL Fetal Bovine Serum, 25 mL Hepes buffer solution (IM), 12.5 mL Penicillin-Streptomycin solution)
2. Cell line (HCT-116, human colon cancer cell line)
3. Indicator (MTS and PMS in DPBS)
5. Standard anticancer drug (etoposide (VP-16); stock is 4 mg/mL in DMSO
6. DPBS (without CaCl2 and MgCl2)
1. Remove medium from the cells and rinse with 10 mL sterile DPBS.
3. Allow to stand in hood for 1 minute.
4. Remove trypsin with sterile pipette.
5. Allow flask to stand in hood for 2-5 minutes.
6. Add 10 mL of media to flask and pipette up and down to gently break up cell clumps.
7. Count the number of cells using a hemacytometer.
8. Determine # of plates needed, and total volume of cell suspension (16 or 18 mL per plate).
9. Dilute cells to a final concentration of 2.5×10^4 cells/mL in a sterile flask.
10. Pour cell suspension into a sterile trough.
For Serial Dilution Plates
1. Add 175 μL to each well in the first row of a 96 well plate.
2. Add 150 μL to the rest of the wells in A1-A10 & A12.
3. In row 11 add 150 μL cell suspension to the first 6 wells and only media to the last two.
For Single Concentration Plates
1. Add 150 μL of sterile media to G11 & H11.
2. Add 150 μL of cell suspension to all other wells.
3. Add 25 μL more to well H1.
Incubate plates overnight at 37° C. & 5% CO2
1. Add 25 μL of test compounds @ 10 mg/mL to A1-A10, 25 μL of DMSO to A11 & 25 μL of etoposide (4 mg/mL) to A12.
2. Using a twelve channel pipette, mix well then remove 50 μL from the first row and transfer to the next row, repeat down the plate until row F, then remove tip # 11 and continue down plate discarding the last 50 μL.
3. Incubate plates for 72 h.
1. Add 20 μL of MTS/PMS solution to each well.
3. Read plates @490 nm on plate reader.

For the molecule `CC(C)C[C@@H]1NC(=O)[C@H](C(C)C)NC(=O)[C@H](CC(C)C)NC(=O)[C@H](CC(C)C)N(C)C(=O)[C@H](Cc2ccc(Br)cc2)NC1=O` [Compound 1c] (cyclo([Phe(4-Br)][NMeL]LVL)), the “Fold Induction Over DMSO control” value is 0.75 in data set [1] (PC-3, 1 μM); 0.56 in data set [3] (MDA-MB231, 1 μM); 1.10 in [4] (WM115, 1 μM). Besides, the Caspase-3 activity result in data set [2] is given as “induced”.
Regarding `CC(C)C[C@@H]1NC(=O)[C@H](Cc2ccc(Br)cc2)NC(=O)[C@H](CC(C)C)N(C)C(=O)[C@H](C(C)C)NC(=O)[C@H](CC(C)C)NC1=O` [Compound 1i] (cyclo([Phe(4-Br)]LLV[NMeL])), the “Fold Induction Over DMSO control” value in [1] (PC-3, 1 μM) came out at 0.85; in data set [3] (MDA-MB231, 1 μM), 0.96; in data set [4] (WM115, 1 μM), 1.44. In addition, in the data set on PC-3 cells, the “induction of apoptosis (Annexin V binding)” value is recorded as “induction of apoptosis was observed”. For the same molecule, the “change in number of cells” value with AsPC-1 cells [5] and with S2-013 cell line was “significant (p<0.05) decrease” in each case. Further, in [2], the Caspase-3 activity entry is “induced”.
For `CC(C)C[C@@H]1NC(=O)[C@H](CC(C)C)NC(=O)[C@H](Cc2ccc(Br)cc2)N(C)C(=O)[C@H](CC(C)C)NC(=O)[C@H](C(C)C)NC1=O` [Compound 1k] (cyclo([NMePhe(4-Br)]LLVL)), the S phase fraction entry in data set [6] and in data set [9] was “marked decrease” in each case. In addition, the cell cycle effect entry in data set [6] and in data set [9] was “G0/G1 phase cell cycle arrest” each time. Besides, the “subG1 fraction of apoptotic cells” value in data set [6] and in [9] was “increase” in each case. Further, the “Fold Induction Over DMSO control” value in data set [1] (PC-3, 1 μM) is given as 0.95; in data set [1] (PC-3, 10 μM), 0.66; in data set [3] (MDA-MB231, 1 μM), 3.17; in data set [3] (MDA-MB231, 10 μM) it was 0.41; in data set [4] (WM115, 1 μM) it was 1.05; in [4] (WM115, 10 μM), 0.13. The “change in number of cells” value with AsPC-1 cells [5] and with S2-013 cell line was “significant (p<0.05) decrease” throughout. Besides, the “concentration-dependent effect on thymidine incorporation” value in data set [7] was “concentration-dependent inhibition”. Moreover, the “compound concentration giving obvious morphological changes” value with AsPC-1 cells [8] is on record as not below 10 μM.
As to `CC(C)C[C@@H]1NC(=O)[C@H](C(C)C)NC(=O)[C@H](CC(C)C)OC(=O)[C@H](CC(C)C)NC(=O)[C@H](Cc2ccccc2)NC1=O` [Sansalvamide A, reference compound] (cyclo(FL[Hica(2S)]VL)), the “Fold Induction Over DMSO control” value in data set [1] (PC-3, 1 μM) came to 0.95; in data set [1] (PC-3, 10 μM) it was 0.22; in data set [3] (MDA-MB231, 1 μM), 0.90; in data set [3] (MDA-MB231, 10 μM) it was 0.09; in [4] (WM115, 1 μM), 0.98; in data set [4] (WM115, 10 μM), 0.02. In addition, the “mean IC50 against NCI 60 cell-line panel” value in [10] is 27.4 µg/mL. For the same molecule, in the data set with topoisomerase I, the “inhibition of topoisomerase I” value is on record as “inhibitor of topoisomerase I”. For the same molecule, the “in vitro value toward HCT-116 colon carcinoma” value in data set [11] was 9.8 µg/mL. The molecule further gave a 50% inhibitory concentration (IC50) in data set [12] of 9.8 µg/mL (≈ 16.7 µM).
